# Assay results taken from patent US5733559A, “Controlled release inclusion system of glycolic acid in β-cyclo-dextrin and process for the above system preparation” (priority 1995, dated 1998).
# Where “and” joins values, the source holds several entries; their conditions need not be identical. Identical values can stand only once.
# Tests used:
# [1] = tested on: cutaneous area (volar surfaces of the forearm); test: Patch test (epicutaneous test): cutaneous irritation by occlusive application, average index of cutaneous irritation (IIM)
# Source text: The first series of tests consisted in the test of cutaneous irritation or epicutaneous test (Patch Test) by means of occlusive application.
# (§1) Free glycolic acid 70% (AG)--Du Pont
# Ten healthy subjects were selected, of both sex, with negative anamnesis for allergic dermatitis by contact (DAC) and without any other pathology in process during the execution of the Test.
# The ready to use plasters for dermoreactions used for the Patch Test were made of white "non woven fabric" with a dermatophilic mass of acrylic adhesive, in the shape of 1 cm diameter disc, covered by small squares of polyethylene.
# The test was performed as follows: after cleansing with 70% alcoholic solution (denatured ethyl alcohol the cutaneous area to be treated (volar surfaces of the forearm), occlusive applications of the substance under examination were carried out for one hour. After that period, the plasters were removed and 15 minutes later the cutaneous reaction was evaluated and classified on the basis of an arbitrary scale.
# The cutaneous reactions considered were:
# According to the arbitrary scale used for the classification of the cutaneous reactions, 0 corresponds to the absence of reaction, 1 point to a light degree, 2 points to a moderate degree of reaction and 3 points to a reaction of serious gravity.
# For each volunteer scores were recorded for each parameter and the mean value was calculated. […]
# [2] = tested on: skin of the face (periocular and zygomatic zone); test: Non occlusive application: cutaneous tolerability test on the face
# Method: For the second series of tests cutaneous irritation was determined following non-occlusive applications.
# Non occlusive application
# as §1
# Eight healthy volumary women were chosen, aged between 30 and 50 (average age 37,5).
# The samples were applied on one half of the face (periocular and zygomatic zone) using a badger brush. The duration of the application was decided according to the type of skin and to the cutaneous reaction of the individual volunteer. 5 applications were carried out, one every three or more days according to the subjects.
# The irritating effect was assessed before the application and one hour after the application.
# The parameters considered to clinically evaluate the irritating degree of the substance under examination were the following:
# irritative symptoms: erythema, pruritus, burning, desquamation, blistering, eczematous reaction.
# The irritating effect was assessed on the basis of an arbitrary scale, based on clinical experience, recorded as follows:
# 1=Modest reaction (slight reddening, pruritus)
# 2=Irritative reaction (erythema, pruritus, desquamation)
# 3=Strong irritative reaction (erythema, burning, strong pruritus, desquamation, and more)
# After every application the cutaneous reactions of each volunteer were evaluated and a relative score was given.
# [3] = application time 3 min, 50% concentration, pH 2,5, right side of face, one value per subject
compound,measurement,setting,value
"O=C(O)CO [AG, glycolic acid]",average index of cutaneous irritation of AG compared to that of CCAG,[1]; 10% concentration,significantly and appreciably higher
same,average index of cutaneous irritation of free glycolic acid compared to that of glycolic acid complexed with cyclodextrins,[1]; at comparable concentrations (5%),slightly higher
same,"case of average to serious irritation after the second application, requiring suspension of the treatment","[2]; 8 subjects, right side periocular and zygomatic area",one
same,"irritation score (arbitrary scale 0-3), 1st application","[2]; application time 1 min, 50% concentration, pH 2,5, AG right side, CCAG left side of face, one value per subject",0
same,"irritation score (arbitrary scale 0-3), 2nd application","[2]; application time 2 min, 50% concentration, pH 2,5, AG right side, CCAG left side of face, one value per subject",2/3 and 0
same,"irritation score (arbitrary scale 0-3), 3rd application","[2]; application time 3 min, 50% concentration, pH 2,5, AG right side, CCAG left side of face, one value per subject",2 and 0
same,"irritation score (arbitrary scale 0-3), 4th application, AG",[2]; [3],0
same,"irritation score (arbitrary scale 0-3), 5th application, AG",[2]; [3],0
same,cases of irritation of average gravity after the third application,[2]; in vivo,2 cases
same,cases of irritation of grade 2 and 2/3,[2]; in vivo,3 cases
same,irritation because of which subject 1 had to suspend treatment,"[2]; subject 1, second application",average to serious irritation
